Experimental data reported in patent US20030059797A1, “Animal model of and test for Alzheimer's disease” (priority 1999, published 2003).
“And” between values parts separate entries of the source, which are not always exact repeats. Equal values may be shown once.

Assays:
tryptamine binding site = conditions: cited from earlier work; for binding to tryptamine site (in words): human cortical membrane preparation, Mousseau & Butterworth 1994
[1] = tested on: human neuroblastoma SH SY5Y cell line; test: Cultivation of SH SY5Y cells with TrpRS inhibitors; type: cell-based; conditions: for cell survival after cultivation with inhibitor: 50-100 μg/ml, 5 days, initial density 1×10^3 on 10-cm dishes
Description: The involvement of TrpRS inhibitors in neurofibrillary tangles formation was tested in the human neuroblastoma SH SY5Y cell line expressing tau. Tanaka et al., FEBS Lett. 426: 248-254 (1998). This cloned line comprises two morphologically distinct cell types: predominantly neuroblastic (bearing short neurites) and epithelial-like (lacking neurites). Biedler et al., Cancer Res. 33: 2643-2652 (1973). SH SY5Y cells were grown in 25 cm^2 flasks (TPP, Switzerland) in 5% CO2 at 37° C. in RPMI 1640 medium supplemented with 10% fetal calf serum, 100 u/ml penicillin, 100 μg/ml streptomycin, 0.25 μg/ml amphoterycin and 2 mM glutamine. The neuron/axon lines were isolated after seeding microscopically verified single […] cells.
Continuous treatment with lower concentrations of the inhibitors led to accumulation of large flattened, tightly substrate adherent epithelial-like cells lacking neurites, while the majority of neuroblasts died.
TrpRS was mainly localized in axons and to a less extent in the neuronal body and dendrites (wrs, FIG. 1e). […] In some sublines, however no neuroblasts were observed during 12 months cultivation without inhibitors (low panel, FIG. 1f).

neuronal cell lines = conditions: Tanaka et al. 1998; cited from earlier work
mice [2] = test: Running on a narrow stick, tryptamine-treated mice; type: in vivo; conditions: individual mouse
Description: (§1) An Alzheimer's disease mouse model was obtained by using intravenous injections of male mice at 8 weeks or age- and sex-matched mice with 1-500 micrograms of tryptamine every second day for at least 2.5 weeks. In one embodiment, mice are injected with 50 micrograms of tryptamine for 4 months. However, the duration of treatment, intervals between injections and concentrations of tryptamine can be successfully varied. Control mice are injected with phosphate-buffered saline.
Behavioral tests with control and tryptamine-treated mice. Behavioral assays with control and tryptamine-treated mice included tests for movement or coordination, sense of balance, orientation, and loss of interest. The behavioral tests in which the tryptamine-treated mice were tested included (a) a test of stable sitting (following 3 months of treatment), and (b) a test of running on a narrow stick (following 3, 4 and 6 months of the treatment). […] As shown in the testing this behavior of mice is age-dependent. […] The data obtained regarding behavior of the control and tryptamine-treated mice are in good agreement with later signs of Alzheimer's disease compared with normal signs of aging (Source: Alzheimer's Disease: early warning signs and diagnostic resources. The Junior League of NYC, Inc, 1988).
The model mice were made to run on a white metallic 80 cm stick having a diameter of 1 cm stick and placed 30 cm over the surface of a platform. Data in TABLE I are: (a) lag time (time that the mice were sitting at one end of the stick before beginning to run); (b) run time; and (c) the % of the stick that the mice successfully completed.

mice [3] = test: Brain histology of tryptamine-treated mice (Congo Red, Gallyas silver staining); type: in vivo; conditions: intravenous, every second day, at least 2.5 weeks of treatment
Description: as §1
Immunochemical assays with control and tryptamine-treated mice. Following tryptamine treatment, the brains of the treated model mice and the control untreated mice were routinely fixed; sectioned, stained and analyzed microscopically, using commonly used well-established methods. The mouse brains were examined for Alzheimer's-like manifestations.
These manifestations were not found in the control mice.
FIG. 5 is a set of micrographs showing Congo Red staining and birefringence of sagittal sections from brains of tryptamine-treated mice. […] FIG. 6 is a set of micrographs showing silver staining of Alzheimer's neurofibrillary changes in the brain sections of tryptamine-treated mice.

SH SY5Y cells = test: Tryptamine treatment of epithelial-enriched and neuron-axon SH SY5Y cells, staining and electron microscopy; type: cell-based, human; conditions: 20-100 μg/ml tryptamine for 6-60 days, electron microscopy
Description: To examine control epithelial cells, which were not pretreated with inhibitors, neuroblastic and epithelial-enriched cells were separated from one another by exploiting a marked difference in adhesive properties. Biedler et al., Cancer Res. 33: 2643-2652 (1973). The weakly adherent neuroblasts were washed out with trypsin. The selected epithelial-enriched and tryptamine-differentiated neuron-axon cells were treated with 20-100 μg/ml tryptamine for 6-60 days and then stained. […] (Mouse anti-human PHF-tau, clone AT8 against epitope containing phosphorylated Ser202 was obtained from Innogenetics (Ghent, Belgium).)
To test whether TrpRS and tau co-localize in neurofibrillary tangles, fluorescent double labeling with AT8 and anti-TrpRS was performed. In acute-treated cells, the proteins were co-localized both in I-NFT-like encircled nuclei (FIG. 2e, f, i, and j) and E-NFT-like manifestations (FIG. 2g). In the perikarya of the control pretreated or untreated epithelial cells, few if any such formations were labeled (FIG. 2h and FIG. 2k). The staining is specific. The staining was absent in the control specimens probed with secondary antibodies (FIG. 2l).
To test whether tryptamine-induced manifestations are associated with neurofilaments, the cells were prepared either as a suspension (FIG. 2m) or as a monolayer and then analyzed by electron microscopy. […]

mice [4] = test: Stability (balance) on narrow 1-cm stick; type: in vivo
Description: FIG. 7 is a set of tables and graphs showing measurements of the treated mice's behavior. The control and tryptamine-treated model mice were put on a narrow 1-cm diameter metallic stick. The time that mice balanced on the stick was measured in seconds. 66% of control versus 10% of treated mice kept on the stick for more than 6 seconds in the first experiment and 66% of control versus 20% of treated were for more than 13 seconds in the second experiment. Thus, the model mice were 6.6 times less balanced or coordinated than control.
FIG. 7 is a set of tables and graphs showing measurements of the treated mice's stability The control and tryptamine-treated model mice were put on a narrow 1 cm diameter metallic stick. The time of their presence on the stick was measured in seconds. […] Thus, the model mice are 6.6 times less balanced than control.

mice [5] = test: Observation of health and behavior of tryptamine-treated mice; type: in vivo
Description: as §1
The tryptamine-treated mice appear to be healthy in comparison to the control mice. The treated mice are clean and fat.

TrpRS = test: Western blot of TrpRS in detergent-insoluble fraction of treated cells; type: cell-based, human; conditions: 6C10/C9 blot
Description: The involvement of tau and TrpRS in tryptamine-induced phenotypes was tested in extracts of control and treated cells. Triton extraction was performed as follows: Cells were lysed in 0.1 M Hepes buffer, pH 6.9, 0.5% Triton X100, 1 mM MgCl2, 0.1 mM EDTA, 2 mM EGTA, 1 mM DTT, 1 mM PMSF, 0.4 mg/ml aprotinin, 0.1 mg/ml antipain, leupeptin, pepstatin, and hemastatin, 0.1 μM okadaic acid, 10 mM sodium ortovanadate, and 50 mM sodium fluoride for 20 min in situ at room temperature. The detergent-insoluble fraction was collected with scraper and washed in the same buffer excluding inhibitors of phosphatases. The detergent-insoluble fraction was then solubilized in SDS-sample buffer at 100° C. for 5 min, and spun. […]
In the Western blot, both human recombinant ˜54 kDa and bovine ˜60 and ˜40-42 kDa (well-characterized proteolytic fragments) TrpRS reacted with 6C10/C9 and polyclonal antibodies (FIG. 3b), while poorly with 9D7. The main form and an additional high molecular weight TrpRS were induced in detergent-insoluble cytoskeleton by tryptamine treatment (right panel, FIG. 3c), whereas no difference was detected between acute-treated and pretreated cells (left and middle panels, FIG. 3c) when total extracts were analyzed. In the cytoskeleton of both treated and control cells, TrpRS was detected at a lower molecular weight than the cytoplasmic TrpRS (FIG. 3c). […]

CC(N)Cc1ccccc1 (stereo not shown) [amphetamine]
binding to tryptamine site (in words) (tryptamine binding site): higher affinity for the (+)-stereo isomer compared with (−)-isomer

N[C@H](CO)Cc1c[nH]c2ccccc12 [tryptophanol]
cell survival after cultivation with inhibitor [1]: all cells have died

C=C1[C@@H](O)[C@@H]2O[C@]3(CC[C@H](/C=C/[C@@H](C)[C@@H]4CC(C)=C[C@@]5(O[C@H](C[C@@](C)(O)C(=O)O)CC[C@H]5O)O4)O3)CC[C@H]2O[C@@H]1[C@@H](O)C[C@H](C)[C@H]1O[C@@]2(CCCCO2)CC[C@H]1C [okadaic acid]
effect on tau and neurofibrillary tangles (neuronal cell lines): results only in tau hyperphosphorylation, but not neurofibrillary tangles

N[C@@H](Cc1c[nH]c2ccccc12)C(=O)O [tryptophan]
binding to tryptamine site (in words) (tryptamine binding site): dramatically lower binding to trypatmine site than tryptamine

COc1ccc2[nH]cc(CCN)c2c1 [5-methoxytryptamine]
binding to tryptamine site (in words) (tryptamine binding site): higher binding to tryptamine site compared with 5-hydroxytryptamine

NCCc1c[nH]c2ccc(O)cc12 [5-hydroxytryptamine]
lower binding to tryptamine site than tryptamine (tryptamine binding site; relative to tryptamine): > 100

NCCc1c[nH]c2ccccc12 [tryptamine]
Run time (mice [2]; 80 cm stick, 1 cm diameter): 2 seconds and 0 seconds (7×) and 10 seconds and 17 seconds
Lag time (mice [2]; 80 cm stick, 1 cm diameter, time sitting at one end before beginning to run): 50 seconds and 47 seconds and 11 seconds and 17 seconds and 13 seconds and 40 seconds and 3 seconds (2×) and 9 seconds and 15 seconds
% of the way (mice [2]; % of the stick successfully completed): 40% and 0% (7×) and 20% and 50%
Alzheimer's-like manifestations in brain sections (mice [3]): Senile plaques, neurofibrillary tangles, and neuropil threads and fibrils were detected
binding to tryptamine site (in words) (tryptamine binding site): most potent inhibitor
neurofibrillary tangles in treated cells (SH SY5Y cells): numerous neurofibrillary tangles were found
% of treated mice kept on the stick for more than 6 seconds (mice [4]; first experiment, control 66%): 10%
% of treated mice kept on the stick for more than 13 seconds (mice [4]; second experiment, control 66%): 20%
times less balanced than control (mice [4]; treated versus control mice): 6.6 times
toxic effect (mice [5]; four months of treatment): do not show any toxic effect
aggressive behavior (mice [5]; in contrast to control mice): do not show aggressive behavior
expression of cytoskeleton TrpRS forms (TrpRS): induces high expression of cytoskeleton TrpRS forms
cell survival after cultivation with inhibitor [1]: all cells have died
relative toxicity for neuroblasts and epithelial cells ([1]; SH SY5Y): more toxic for neuroblasts than for epithelial cells
neurodifferentiation of epithelial cells ([1]; continuous treatment with lower concentrations, then cultivation without inhibitors): induces neurodifferentiation of the epithelial cells

C#CCN(C)[C@H](C)Cc1ccccc1 [deprenyl]
binding to tryptamine site (in words) (tryptamine binding site): higher affinity for the (+)-stereo isomer compared with (−)-isomer
